From the NIST ThermoML archive (doi:10.1016/j.fluid.2017.02.012)
Numbers after ± are expanded uncertainties.

Conditions: Liquid, Pendant drop shape

CCCCCCCCCCCCCCC [pentadecane] + O=C=O
Conditions | interfacial tension [mN/m]
313.15 K, 430 kPa | 21.65 ± 0.3
313.15 K, 1100 kPa | 20.48 ± 0.28
313.15 K, 2090 kPa | 18.38 ± 0.25
313.15 K, 3090 kPa | 16.15 ± 0.22
313.15 K, 4080 kPa | 14.04 ± 0.19
313.15 K, 5090 kPa | 11.41 ± 0.16
313.15 K, 6090 kPa | 8.91 ± 0.13
313.15 K, 6890 kPa | 6.25 ± 0.1
313.15 K, 8060 kPa | 2.69 ± 0.08
333.15 K, 360 kPa | 20.84 ± 0.29
333.15 K, 1380 kPa | 19.61 ± 0.27
333.15 K, 2390 kPa | 17.57 ± 0.24
333.15 K, 3490 kPa | 15.7 ± 0.22
333.15 K, 4330 kPa | 14.41 ± 0.2
333.15 K, 5290 kPa | 12.81 ± 0.18
333.15 K, 5990 kPa | 11.75 ± 0.16
333.15 K, 7290 kPa | 9.17 ± 0.13
333.15 K, 8400 kPa | 6.86 ± 0.1
333.15 K, 9860 kPa | 4.22 ± 0.07
353.15 K, 580 kPa | 19.83 ± 0.27
353.15 K, 1630 kPa | 18.11 ± 0.25
353.15 K, 2790 kPa | 17.01 ± 0.23
353.15 K, 3610 kPa | 15.63 ± 0.21
353.15 K, 4630 kPa | 14.2 ± 0.19
353.15 K, 5700 kPa | 12.85 ± 0.18
353.15 K, 6630 kPa | 11.53 ± 0.16
353.15 K, 7720 kPa | 9.79 ± 0.14
353.15 K, 8560 kPa | 8.69 ± 0.12
353.15 K, 9490 kPa | 7.32 ± 0.1
353.15 K, 10730 kPa | 5.87 ± 0.09
353.15 K, 11560 kPa | 4.82 ± 0.07
353.15 K, 12000 kPa | 4.24 ± 0.07
373.15 K, 1080 kPa | 18.21 ± 0.25
373.15 K, 2060 kPa | 16.61 ± 0.23
373.15 K, 3240 kPa | 15.25 ± 0.21
373.15 K, 4280 kPa | 14.53 ± 0.2
373.15 K, 5390 kPa | 13.01 ± 0.18
373.15 K, 6240 kPa | 12.08 ± 0.17
373.15 K, 7340 kPa | 10.81 ± 0.15
373.15 K, 8340 kPa | 9.6 ± 0.13
373.15 K, 9400 kPa | 8.42 ± 0.12
373.15 K, 10490 kPa | 7.37 ± 0.1
373.15 K, 12060 kPa | 5.74 ± 0.08
373.15 K, 13190 kPa | 4.64 ± 0.07
373.15 K, 13960 kPa | 4.06 ± 0.06
393.15 K, 3280 kPa | 14.72 ± 0.2
393.15 K, 5680 kPa | 12.36 ± 0.17
393.15 K, 8600 kPa | 9.58 ± 0.13
393.15 K, 11400 kPa | 6.86 ± 0.1
393.15 K, 14720 kPa | 4.22 ± 0.06

CCCCCCCCCCCCC [tridecane] + O=C=O
Conditions | interfacial tension [mN/m]
313.15 K, 550 kPa | 22.3 ± 0.31
313.15 K, 2100 kPa | 18.58 ± 0.26
313.15 K, 3240 kPa | 15.83 ± 0.22
313.15 K, 4300 kPa | 13.06 ± 0.18
313.15 K, 5300 kPa | 10.43 ± 0.15
313.15 K, 5940 kPa | 8.57 ± 0.13
313.15 K, 7490 kPa | 3.8 ± 0.08
333.15 K, 330 kPa | 21.41 ± 0.3
333.15 K, 1360 kPa | 19.62 ± 0.27
333.15 K, 2440 kPa | 17.54 ± 0.25
333.15 K, 3580 kPa | 15.34 ± 0.22
333.15 K, 5410 kPa | 11.87 ± 0.17
333.15 K, 5930 kPa | 10.74 ± 0.15
333.15 K, 6830 kPa | 9.08 ± 0.13
333.15 K, 8000 kPa | 6.91 ± 0.1
333.15 K, 8780 kPa | 5.38 ± 0.09
333.15 K, 9410 kPa | 4.25 ± 0.07
333.15 K, 10010 kPa | 3.24 ± 0.06
353.15 K, 440 kPa | 19.97 ± 0.28
353.15 K, 1760 kPa | 17.82 ± 0.25
353.15 K, 3190 kPa | 15.75 ± 0.22
353.15 K, 4830 kPa | 13.15 ± 0.18
353.15 K, 5700 kPa | 11.84 ± 0.17
353.15 K, 6050 kPa | 11.5 ± 0.16
353.15 K, 7500 kPa | 9.24 ± 0.13
353.15 K, 8990 kPa | 7.3 ± 0.11
353.15 K, 10030 kPa | 5.75 ± 0.09
353.15 K, 10880 kPa | 4.76 ± 0.08
353.15 K, 11770 kPa | 3.76 ± 0.06
373.15 K, 540 kPa | 18.67 ± 0.26
373.15 K, 2380 kPa | 16.03 ± 0.22
373.15 K, 4400 kPa | 13.13 ± 0.18
373.15 K, 5790 kPa | 11.68 ± 0.16
373.15 K, 8100 kPa | 9.03 ± 0.13
373.15 K, 9910 kPa | 6.93 ± 0.1
373.15 K, 12260 kPa | 4.57 ± 0.07
373.15 K, 13710 kPa | 3.32 ± 0.05
393.15 K, 410 kPa | 17.04 ± 0.24
393.15 K, 4630 kPa | 12.6 ± 0.18
393.15 K, 8730 kPa | 8.27 ± 0.12
393.15 K, 13580 kPa | 4.32 ± 0.07

CCCCCCCCCCC [undecane] + O=C=O
Conditions | interfacial tension [mN/m]
313.15 K, 340 kPa | 22.19 ± 0.3
313.15 K, 1410 kPa | 19.54 ± 0.27
313.15 K, 2530 kPa | 16.91 ± 0.23
313.15 K, 3590 kPa | 14.36 ± 0.2
313.15 K, 4700 kPa | 11.15 ± 0.16
313.15 K, 5630 kPa | 8.47 ± 0.12
313.15 K, 6540 kPa | 5.82 ± 0.1
313.15 K, 7100 kPa | 3.75 ± 0.08
333.15 K, 350 kPa | 20.59 ± 0.28
333.15 K, 1700 kPa | 17.96 ± 0.25
333.15 K, 3240 kPa | 14.87 ± 0.2
333.15 K, 4730 kPa | 12.15 ± 0.17
333.15 K, 5810 kPa | 9.86 ± 0.14
333.15 K, 7190 kPa | 7.45 ± 0.11
333.15 K, 8000 kPa | 5.82 ± 0.09
333.15 K, 8910 kPa | 4.12 ± 0.07
353.15 K, 440 kPa | 18.64 ± 0.26
353.15 K, 1800 kPa | 16.41 ± 0.22
353.15 K, 3430 kPa | 14.14 ± 0.19
353.15 K, 4930 kPa | 11.74 ± 0.16
353.15 K, 6480 kPa | 9.53 ± 0.13
353.15 K, 7890 kPa | 7.53 ± 0.11
353.15 K, 8940 kPa | 5.99 ± 0.09
353.15 K, 10190 kPa | 4.39 ± 0.07
373.15 K, 410 kPa | 17.05 ± 0.23
373.15 K, 1880 kPa | 15.22 ± 0.21
373.15 K, 3100 kPa | 13.86 ± 0.19
373.15 K, 4410 kPa | 12.26 ± 0.17
373.15 K, 5910 kPa | 10.19 ± 0.14
373.15 K, 7020 kPa | 8.84 ± 0.12
373.15 K, 8600 kPa | 7.05 ± 0.1
373.15 K, 9900 kPa | 5.73 ± 0.08
373.15 K, 11680 kPa | 3.99 ± 0.06
393.15 K, 530 kPa | 15.69 ± 0.22
393.15 K, 3300 kPa | 12.38 ± 0.17
393.15 K, 5820 kPa | 9.76 ± 0.13
393.15 K, 9300 kPa | 6.53 ± 0.09
393.15 K, 12810 kPa | 3.55 ± 0.05
